Calls of active or inactive are those of the source.
How the values were obtained:
Streptokinase A = biological target: T1, Streptokinase A (Streptococcus pyogenes serotype M1, UniProt P10520); experiment: S. pyogenes streptokinase expression inhibitors, potency, dose response, plasminogen activation absorbance, OD405 (AID 1914); type: functional, Streptococcus pyogenes M1 GAS;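 note: secreted streptokinase activity via plasminogen activation per viability signal from cell pellet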
T1 sequence (P10520 whole entry): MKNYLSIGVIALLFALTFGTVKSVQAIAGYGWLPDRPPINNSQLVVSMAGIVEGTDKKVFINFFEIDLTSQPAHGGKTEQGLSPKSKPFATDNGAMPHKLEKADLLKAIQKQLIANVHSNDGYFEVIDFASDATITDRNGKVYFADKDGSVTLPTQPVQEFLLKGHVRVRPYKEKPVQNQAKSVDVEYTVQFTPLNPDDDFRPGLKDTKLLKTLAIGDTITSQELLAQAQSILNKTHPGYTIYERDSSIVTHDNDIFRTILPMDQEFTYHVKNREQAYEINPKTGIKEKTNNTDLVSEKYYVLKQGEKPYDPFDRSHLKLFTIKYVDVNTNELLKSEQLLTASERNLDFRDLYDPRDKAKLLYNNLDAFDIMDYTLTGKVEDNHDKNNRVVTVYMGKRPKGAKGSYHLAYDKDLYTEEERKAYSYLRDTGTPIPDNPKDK

Streptococcus = experiment: Group A Streptococcus viability loss, dose response, counter-screen for streptokinase expression inhibitor project, luminescence, BacTiterGlo (AID 1915); type: functional, organism-based;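 note: potency for reduction of bacterial viability or growth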
Troponin, cardiac muscle = Troponin, cardiac muscle (Homo sapiens, UniProt P19429+P45379+P63316); experiment: Fluorescence-based biochemical high throughput dose response assay for activators of the calcium sensitivity of cardiac Regulated Thin Filaments (RTF). [Related pubchem assays (depositor defined):AID493008, AID493018, AID504382, AID504383]; type: protein-complex assay
[1] = system: Streptococcus sp. 'group A'; experiment: growth inhibition of control SK(-) GAS strain, dose response, counter-screen for streptokinase expression inhibitor project, luminescence, kanamycin, BacTiterGlo, confirmation (AID 1900); type: functional, organism-based
[2] = biological target: G-protein coupled receptor 55 (Homo sapiens, UniProt Q9Y2T6); experiment: GPR55 antagonists blocking LPI-driven arrestin recruitment, primary screen, imaging, U2OS, beta-arrestin-GFP, LPI agonist (AID 2013); type: functional;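 note: antagonist potency measured as reduced agonist-driven arrestin aggregation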
G-protein coupled receptor 55, sequence (Q9Y2T6 whole entry): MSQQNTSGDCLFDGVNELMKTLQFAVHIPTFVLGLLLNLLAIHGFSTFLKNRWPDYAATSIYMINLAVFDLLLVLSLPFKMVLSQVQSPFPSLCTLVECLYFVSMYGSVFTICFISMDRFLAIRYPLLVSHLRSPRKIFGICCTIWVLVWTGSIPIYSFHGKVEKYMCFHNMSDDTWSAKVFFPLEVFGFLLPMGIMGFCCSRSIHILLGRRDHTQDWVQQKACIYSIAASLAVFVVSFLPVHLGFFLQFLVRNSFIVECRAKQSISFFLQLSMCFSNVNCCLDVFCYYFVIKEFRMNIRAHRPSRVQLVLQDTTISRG

[3] = biological target: T2, Voltage-gated N-type calcium channel alpha-1B subunit/Amyloid beta A4 precursor protein-binding family A member 1 (Homo sapiens, UniProt Q00975+Q02410); type: protein assay
T2 sequence (Q00975 whole entry): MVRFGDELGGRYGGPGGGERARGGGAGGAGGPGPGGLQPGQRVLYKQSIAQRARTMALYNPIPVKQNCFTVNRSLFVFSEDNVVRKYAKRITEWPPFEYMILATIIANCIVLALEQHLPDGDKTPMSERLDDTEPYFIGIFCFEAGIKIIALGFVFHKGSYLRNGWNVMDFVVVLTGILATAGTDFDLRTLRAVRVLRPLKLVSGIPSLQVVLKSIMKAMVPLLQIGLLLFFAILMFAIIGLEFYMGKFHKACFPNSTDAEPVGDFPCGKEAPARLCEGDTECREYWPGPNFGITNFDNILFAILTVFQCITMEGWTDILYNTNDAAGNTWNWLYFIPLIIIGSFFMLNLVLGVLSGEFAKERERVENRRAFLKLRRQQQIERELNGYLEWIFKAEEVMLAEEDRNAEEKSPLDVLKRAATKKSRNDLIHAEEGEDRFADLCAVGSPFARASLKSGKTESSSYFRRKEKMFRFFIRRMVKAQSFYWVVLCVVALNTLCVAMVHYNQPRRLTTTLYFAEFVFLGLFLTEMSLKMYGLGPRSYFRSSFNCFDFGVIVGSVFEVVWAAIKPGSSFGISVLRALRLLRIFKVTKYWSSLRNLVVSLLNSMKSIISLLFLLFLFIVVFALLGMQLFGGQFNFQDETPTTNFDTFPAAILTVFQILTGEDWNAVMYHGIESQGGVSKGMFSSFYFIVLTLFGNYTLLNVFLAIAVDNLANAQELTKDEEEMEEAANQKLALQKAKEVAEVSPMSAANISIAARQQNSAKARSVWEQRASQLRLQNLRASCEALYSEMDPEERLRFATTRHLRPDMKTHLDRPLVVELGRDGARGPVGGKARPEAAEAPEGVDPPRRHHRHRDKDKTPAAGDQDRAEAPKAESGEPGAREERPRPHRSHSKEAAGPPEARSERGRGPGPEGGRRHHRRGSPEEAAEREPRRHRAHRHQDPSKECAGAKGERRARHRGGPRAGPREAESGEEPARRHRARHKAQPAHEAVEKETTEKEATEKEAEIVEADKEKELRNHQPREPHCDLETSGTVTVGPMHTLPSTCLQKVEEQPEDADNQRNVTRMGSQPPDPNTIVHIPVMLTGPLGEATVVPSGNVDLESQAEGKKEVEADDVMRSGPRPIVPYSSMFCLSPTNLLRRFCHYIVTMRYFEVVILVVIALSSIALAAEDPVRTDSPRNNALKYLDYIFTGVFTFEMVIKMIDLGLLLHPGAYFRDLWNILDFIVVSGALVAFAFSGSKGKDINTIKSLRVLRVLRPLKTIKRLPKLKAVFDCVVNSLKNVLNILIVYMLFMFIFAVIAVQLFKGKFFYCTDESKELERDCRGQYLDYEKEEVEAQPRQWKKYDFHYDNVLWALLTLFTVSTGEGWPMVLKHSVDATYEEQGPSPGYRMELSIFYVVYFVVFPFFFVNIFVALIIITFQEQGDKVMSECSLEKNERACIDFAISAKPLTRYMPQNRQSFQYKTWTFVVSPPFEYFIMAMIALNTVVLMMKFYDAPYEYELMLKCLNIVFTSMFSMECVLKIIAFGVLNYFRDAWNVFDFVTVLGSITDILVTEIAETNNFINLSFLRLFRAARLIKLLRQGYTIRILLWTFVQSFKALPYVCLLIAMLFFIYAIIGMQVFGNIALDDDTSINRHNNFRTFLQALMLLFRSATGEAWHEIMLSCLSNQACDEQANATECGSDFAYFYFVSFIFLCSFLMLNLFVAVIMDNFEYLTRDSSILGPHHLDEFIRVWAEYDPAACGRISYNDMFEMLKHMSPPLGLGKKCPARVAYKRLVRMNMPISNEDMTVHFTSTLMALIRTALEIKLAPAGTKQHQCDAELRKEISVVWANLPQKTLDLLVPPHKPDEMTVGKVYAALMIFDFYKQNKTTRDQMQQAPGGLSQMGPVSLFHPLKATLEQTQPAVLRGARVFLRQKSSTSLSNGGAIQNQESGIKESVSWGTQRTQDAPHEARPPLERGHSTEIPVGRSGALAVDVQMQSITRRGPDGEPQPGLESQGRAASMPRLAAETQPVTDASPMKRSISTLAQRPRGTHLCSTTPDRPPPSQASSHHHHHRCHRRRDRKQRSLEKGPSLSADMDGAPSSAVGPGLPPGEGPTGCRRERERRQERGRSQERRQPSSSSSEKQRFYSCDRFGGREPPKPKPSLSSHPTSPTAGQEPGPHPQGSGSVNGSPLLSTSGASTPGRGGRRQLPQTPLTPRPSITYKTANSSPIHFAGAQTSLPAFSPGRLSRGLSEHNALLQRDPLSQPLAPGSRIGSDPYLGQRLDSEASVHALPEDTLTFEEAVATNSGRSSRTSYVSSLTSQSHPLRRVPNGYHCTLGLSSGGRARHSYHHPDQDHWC
T2 sequence (Q02410 whole entry): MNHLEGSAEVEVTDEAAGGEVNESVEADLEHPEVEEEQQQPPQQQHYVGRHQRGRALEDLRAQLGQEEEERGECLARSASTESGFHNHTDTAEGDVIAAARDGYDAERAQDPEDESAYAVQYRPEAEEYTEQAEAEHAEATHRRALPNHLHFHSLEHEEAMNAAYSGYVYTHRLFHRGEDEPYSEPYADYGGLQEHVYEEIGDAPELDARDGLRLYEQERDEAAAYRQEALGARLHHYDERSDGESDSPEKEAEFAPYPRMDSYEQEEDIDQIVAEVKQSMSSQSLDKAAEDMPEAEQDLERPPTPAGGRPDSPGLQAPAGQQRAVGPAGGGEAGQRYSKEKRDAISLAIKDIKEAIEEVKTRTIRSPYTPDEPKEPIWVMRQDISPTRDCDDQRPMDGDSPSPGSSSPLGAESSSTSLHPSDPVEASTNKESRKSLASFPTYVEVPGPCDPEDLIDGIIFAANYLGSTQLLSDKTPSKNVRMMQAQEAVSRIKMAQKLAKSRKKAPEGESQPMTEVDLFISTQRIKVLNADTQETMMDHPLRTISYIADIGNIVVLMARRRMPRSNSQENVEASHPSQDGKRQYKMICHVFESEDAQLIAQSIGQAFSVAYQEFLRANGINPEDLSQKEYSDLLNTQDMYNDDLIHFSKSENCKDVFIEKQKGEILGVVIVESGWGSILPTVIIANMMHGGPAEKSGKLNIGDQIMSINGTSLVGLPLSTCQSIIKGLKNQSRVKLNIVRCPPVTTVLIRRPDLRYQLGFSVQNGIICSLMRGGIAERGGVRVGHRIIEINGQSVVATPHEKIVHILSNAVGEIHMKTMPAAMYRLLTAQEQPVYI

[4] = biological target: T2, Voltage-gated N-type calcium channel alpha-1B subunit/Amyloid beta A4 precursor protein-binding family A member 1; type: protein assay; remark: listed apart in the source
[5] = biological target: T2, Voltage-gated N-type calcium channel alpha-1B subunit/Amyloid beta A4 precursor protein-binding family A member 1; experiment: disruptors of Mint-PDZ/N-type channel peptide interaction – biochemical, HTRF, SAR follow-up (AID 2489); type: functional
[6] = biological target: T2, Voltage-gated N-type calcium channel alpha-1B subunit/Amyloid beta A4 precursor protein-binding family A member 1; experiment: disruptors of Mint-PDZ/N-type channel peptide interaction – biochemical, HTRF, set 2, SAR follow-up (AID 434980); type: functional
Insulin-degrading enzyme = biological target: T3, Insulin-degrading enzyme (Homo sapiens, UniProt P14735); experiment: Dose Response: Fluorescence polarization-based cell-based high throughput dose response assay for inhibitors of insulin-degrading enzyme (IDE). [Related pubchem assays: 434962 (Primary screen (IDE inhibitors in singlicate)), 449730 (Counterscreen (Cytotoxicity in triplicate)), 435028 (Confirmation (IDE inhibitors in triplicate)), 434984 (Summary …; type: functional
T3 sequence (P14735 whole entry): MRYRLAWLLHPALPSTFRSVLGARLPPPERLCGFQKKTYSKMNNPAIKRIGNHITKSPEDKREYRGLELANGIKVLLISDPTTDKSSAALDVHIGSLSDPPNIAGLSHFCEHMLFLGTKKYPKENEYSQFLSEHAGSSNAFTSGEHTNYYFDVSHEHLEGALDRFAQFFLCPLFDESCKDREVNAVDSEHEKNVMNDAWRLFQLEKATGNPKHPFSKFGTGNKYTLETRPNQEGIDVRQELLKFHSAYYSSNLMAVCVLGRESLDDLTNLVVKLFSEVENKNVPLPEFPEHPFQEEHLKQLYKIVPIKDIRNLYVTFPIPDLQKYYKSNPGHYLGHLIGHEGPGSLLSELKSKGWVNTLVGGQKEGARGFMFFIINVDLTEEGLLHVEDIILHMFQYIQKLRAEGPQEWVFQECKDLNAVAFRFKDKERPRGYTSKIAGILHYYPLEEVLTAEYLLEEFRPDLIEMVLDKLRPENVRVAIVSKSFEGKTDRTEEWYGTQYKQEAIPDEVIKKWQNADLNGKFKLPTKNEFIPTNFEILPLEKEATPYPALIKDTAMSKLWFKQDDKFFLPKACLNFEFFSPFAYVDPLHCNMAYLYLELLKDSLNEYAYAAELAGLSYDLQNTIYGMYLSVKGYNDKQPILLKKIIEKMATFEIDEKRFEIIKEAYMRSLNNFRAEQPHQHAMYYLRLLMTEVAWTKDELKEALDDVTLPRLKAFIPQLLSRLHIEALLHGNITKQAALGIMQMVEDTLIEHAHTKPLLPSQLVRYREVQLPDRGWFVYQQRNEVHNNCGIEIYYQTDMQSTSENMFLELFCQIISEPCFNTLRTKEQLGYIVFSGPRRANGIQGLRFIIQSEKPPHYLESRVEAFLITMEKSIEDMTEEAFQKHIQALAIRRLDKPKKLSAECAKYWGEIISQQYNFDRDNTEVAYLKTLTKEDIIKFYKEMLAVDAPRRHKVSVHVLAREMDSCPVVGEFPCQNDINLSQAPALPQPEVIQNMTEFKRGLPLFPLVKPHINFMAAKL

[7] = Counterscreen for IDE inhibitors: Luminescence-based cell-based high throughput dose response assay to identify compounds that are cytotoxic to HEK cells. [Related pubchem assays: 434962 (Primary screen (IDE inhibitors in singlicate)), 449730 (Counterscreen (Cytotoxicity in triplicate)), 435028 (Confirmation (IDE inhibitors in triplicate)) …; type: functional; conditions: HEK293
Bcl-2-related protein A1 = biological target: T4, Bcl-2-related protein A1 (Mus musculus, UniProt Q07440); type: functional;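 note: confirmatory dose–response counterscreen on Bfl-1, used to check hits from a UBC13 polyubiquitin inhibitor campaign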
T4 sequence (Q07440 whole entry): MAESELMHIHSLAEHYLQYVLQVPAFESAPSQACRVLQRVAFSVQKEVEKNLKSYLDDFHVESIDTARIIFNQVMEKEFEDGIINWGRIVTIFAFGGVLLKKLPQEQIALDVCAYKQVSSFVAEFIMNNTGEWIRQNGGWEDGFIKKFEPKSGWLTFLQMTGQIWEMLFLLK

[8] = biological target: T5, Ubiquitin-conjugating enzyme E2 N (Homo sapiens, UniProt P61088); type: functional
T5 sequence (P61088 whole entry): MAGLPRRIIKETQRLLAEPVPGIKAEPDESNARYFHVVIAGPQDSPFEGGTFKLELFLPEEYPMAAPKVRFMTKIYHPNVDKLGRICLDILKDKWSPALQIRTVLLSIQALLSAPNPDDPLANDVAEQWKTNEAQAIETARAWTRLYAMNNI

[9] = biological target: T5, Ubiquitin-conjugating enzyme E2 N; type: functional; remark: listed apart in the source

Cc1cc(/C=C2\SC(=S)N(C)C2=O)c(C)n1-c1ccccc1O
EC50 (Streptokinase A): 17.8 µM (active) | EC50 (Streptococcus): 16.1 µM (active) | EC50 (Troponin, cardiac muscle): 4.96 µM (active) | EC50 [1]: 8.37 µM (active)

CCn1cc(C(=O)NCCC(=O)NCCO)c(=O)c2cc3c(cc21)OCO3
EC50 (Troponin, cardiac muscle): > 71.4 µM (inactive)

COc1cc(Br)c(-c2sc(Nc3ccccc3)n[n+]2-c2ccc(F)cc2)cc1OC
IC50 [2]: 11.9 µM (inactive)

CCN(CC)c1ccc(/C=c2\sc3nnc(-c4ccccc4Cl)n3c2=O)cc1
EC50 (Troponin, cardiac muscle): 0.191 µM (active)

Cc1ccc(/C=C2\SC(=S)N(CCC(=O)NNC(=O)c3cccc(O)c3)C2=O)cc1
IC50 [3]: > 50 µM (inactive) | IC50 [4]: 16 µM (active)

CC(=O)Oc1ccc(N2C(=O)C3C4C=CC(CC4)C3C2=O)cc1 (stereo unspecified)
IC50 [5]: > 56.8 µM (inactive) | IC50 [6]: > 56.8 µM (inactive)

Cc1ccc(Nc2cnn(C34CC5CC(CC(CC(=O)O)(C5)C3)C4)c(=O)c2Cl)cc1C
IC50 (Insulin-degrading enzyme): 18.8 µM (not active) | IC50 [7]: > 55.7 µM (not active)

Cc1[nH]c(=S)c(C#N)c(-c2ccccc2)c1C(=O)Nc1ccccc1
IC50 (Bcl-2-related protein A1): > 20 µM (inactive) | IC50 [8]: 13.9 µM (active) | IC50 [9]: > 20 µM (inactive)

From ChEMBL document CHEMBL1201862, “PubChem BioAssay data set” (2004)
